Test results from patent US20180325909A1, “COMBINATION TREATMENT OF SPECIFIC FORMS OF EPILEPSY” (ZOGENIX INTERNATIONAL LIMITED, priority 2015, published 2018).
Entries after “also recorded” stand apart in the source; their conditions may differ. Like-named read-outs stand apart in the source and are kept apart here.

Columns and labels:
5-HT2C receptor = target: T1, 5-HT2C receptor (Homo sapiens, UniProt P28335); conditions: cited from earlier work
T1 sequence (P28335 33-458): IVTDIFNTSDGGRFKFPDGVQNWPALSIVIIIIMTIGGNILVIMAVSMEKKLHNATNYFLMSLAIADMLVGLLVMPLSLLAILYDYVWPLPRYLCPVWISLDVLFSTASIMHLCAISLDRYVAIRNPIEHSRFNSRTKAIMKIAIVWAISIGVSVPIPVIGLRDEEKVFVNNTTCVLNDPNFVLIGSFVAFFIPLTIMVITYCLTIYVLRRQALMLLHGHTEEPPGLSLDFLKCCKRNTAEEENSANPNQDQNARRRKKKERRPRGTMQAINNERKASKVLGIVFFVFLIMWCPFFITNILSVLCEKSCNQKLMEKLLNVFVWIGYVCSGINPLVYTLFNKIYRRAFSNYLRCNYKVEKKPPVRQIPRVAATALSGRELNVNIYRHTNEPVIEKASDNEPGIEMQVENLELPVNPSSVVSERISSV

[1] = tested on: homozygous scn1Lab−/− mutants; type: in vivo, Danio rerio; conditions: for locomotor-reducing activity of functional analogs: at MTC, in most cases observed after short and long treatment; for activity in the Zebrafish model of epilepsy: following both acute and chronic application
Experimental: (§1) Zebrafish embryos (Danio rerio) heterozygous for the scn1Lab mutation (scn1Lab+/−) were backcrossed with Tupfel longfin wildtype (WT scn1Lab+/+). Adult zebrafish were housed at 28.0° C., on a 14/10 hour light/dark cycle under standard aquaculture conditions. Fertilized eggs were collected via natural spawning. Anaesthetized fish (tricaine 0.02%) were fin-clipped and genotyped by PCR. After genotyping, samples were purified (MinElute PCR Purification Kit) and sequenced by LGC Genomics. Age-matched Tupfel longfin wildtype larvae were used as control group (WT scn1Lab+/+).
(§2) To evaluate the locomotor activity of homozygous scn1Lab−/− mutants and control WT scn1Lab+/+, zebrafish larvae were placed in a 96-well plate in 100 μL of embryo medium from 4 to 8 dpf. Each day the larvae were tracked in an automated tracking device (ZebraBox™ apparatus; Viewpoint, Lyon, France) for 10 min after 30 min habituation (100-second integration interval). All recordings were performed at the same time during daytime period. The total distance in large movements was recorded and quantified using ZebraLab™ software (Viewpoint, Lyon, France). Data were pooled together from at least three independent experiments with at least 24 larvae per condition.
(§3) Scn1Lab−/− mutants and WT scn1Lab+/+ larvae were arrayed in the same plate and treated at 6 days post fertilization (dpf) with fenfluramine (25 μM), functional analogs (at their MTC) or VHC in individual wells of a 96-well plate. After incubation at 28° C. on a 14/10 hour light/dark cycle and 30-min chamber habituation 6 and 7 dpf larvae were tracked for locomotor activity for 10 min (100-second integration interval) under dark conditions. An incubation time of 1.5 hours is further referred as short treatment (6 dpf). Furthermore these larvae were analyzed after more than 22 hours incubation (7 dpf), i.e. long treatment. The total locomotor activity was quantified using the parameter lardist and plotted in cm. Data were pooled together from two (5-HT1B-, 5-HT1F-, 5-HT3-, 5-HT4-, 5-HT5A-, 5-HT6-agonist and all antagonists except 5-HT1B- and 5-HT7-antagonists) or three (fenfluramine, 5-HT1A-, 5-HT1D-, 5-HT1E-, 5-HT2A-, 5-HT2B-, and 5-HT2C-agonist) independent experiments with at least 9 larvae per treatment condition.

[2] = tested on: homozygous scn1Lab−/− mutants; type: in vivo, Danio rerio; conditions: for reduction of epileptiform activity (in words, compared with fenfluramine): long treatment at MTC (5-HT2B-agonist 3.125 μM), at least frequency and mean cumulative duration
Experimental: Epileptiform activity was measured by open-field recordings in the zebrafish larval forebrain at 7 dpf. Homozygous scn1Lab−/− mutants and control WT scn1Lab+/+ were embedded in 2% low-melting-point agarose (Invitrogen) to position a glass electrode into the forebrain. […] Single recordings were performed for 10 min. […] Spontaneous epileptiform events were taken into account when the amplitude exceeded three times the background noise and lasted longer than 50 milliseconds (ms).
Epileptiform activity was measured by open-field recordings in the zebrafish larval forebrain at 7 dpf, as described above. […] Recordings of 7 dpf larvae, from at least 8 scn1Lab−/− mutant larvae were taken per experimental condition. […] Electrographic recordings were quantified for the different treatment conditions.

WT scn1Lab+/+ larvae = assay: Locomotor activity of age-matched wildtype zebrafish larvae; type: in vivo, Danio rerio; conditions: 'with exception of' means the compound did decrease wildtype activity
Experimental: as §1, §2
as §3, with “Data were pooled together from two (5-HT1B-, 5-HT1F-, 5-HT3-, 5-HT4-, 5-HT5A-, 5-HT6-agonist and all antagonists except 5-HT1B- and 5-HT7-antagonists) or three (fenfluramine, 5-HT1A-, 5-HT1D-, 5-HT1E-, 5-HT2A-, 5-HT2B-, and 5-HT2C-agonist) independent experiments with at least 9 larvae per treatment condition.” left out

scn1Lab−/− larvae = assay: Fenfluramine combined with 5-HT subtype antagonists, locomotor activity of scn1Lab-/- larvae; type: in vivo, Danio rerio; conditions: antagonist plus fenfluramine
Experimental: as §3
No highly specific 5-HT1E-antagonist is currently available so it was impossible to explore this 5-HTsubtype receptor in the current assay (Leung, 2009).

Dravet syndrome patients [3] = conditions: Chiron et al. 2011; cited from earlier work
Dravet syndrome patients [4] = conditions: long term treatment with fenfluramine 0.12-0.90 mg/kg/day; Ceulemans et al. 2012; cited from earlier work
[5] = long treatment, fenfluramine 25 μM, 7 dpf

C[C@H]1CNCCc2ccc(Cl)cc21.Cl [lorcaserin, (1R)-8-chloro-1-methyl-2,3,4,5-tetrahydro-1H-3-benzazepine]
affinity for the 5-HT2C receptor vs. the 5-HT2B (5-HT2C receptor): 100 ×
locomotor-reducing activity of functional analogs [1]: locomotor-reducing activity
activity in the Zebrafish model of epilepsy [1]: high levels of activity
reduction of epileptiform activity (in words, compared with fenfluramine) ([2]; 7 dpf): comparable effects

COc1ccc(CNC(=O)/C=C/c2ccc3[nH]cc(CCN(C)C)c3c2)cc1 [5-HT1D-agonist, 3-[3-(2-Dimethylaminoethyl)-1H-indol-5-yl]-N-(4-methoxybenzyl)acrylamide]
locomotor-reducing activity of functional analogs [1]: locomotor-reducing activity
activity in the Zebrafish model of epilepsy [1]: high levels of activity
locomotor activity in wildtype larvae (WT scn1Lab+/+ larvae): did not decrease the locomotor activity
reduction of epileptiform activity (in words, compared with fenfluramine) ([2]; 7 dpf): comparable effects

CC(N)Cc1c[nH]c2ccc(OCc3cccs3)cc12 (centres unmarked) [5-HT2B agonist]
activity in the Zebrafish model of epilepsy [1]: did not show any activity

O=C(c1ccc(F)cc1)C1CCN(CCn2c(=O)[nH]c3ccccc3c2=O)CC1 [5-HT2A-antagonist, ketaserine]
counteraction of the fenfluramine-elicited decrease in locomotor activity, long treatment (scn1Lab−/− larvae; long treatment, p<0.05): not after a long treatment
effect of antagonist on the fenfluramine-elicited decrease in large movements (scn1Lab−/− larvae; treatment time not stated): not seen

CN1C[C@H](C(=O)N[C@]2(C)O[C@@]3(O)[C@@H]4CCCN4C(=O)[C@H](Cc4ccccc4)N3C2=O)C=C2c3cccc4[nH]cc(c34)C[C@H]21 [ergotamine, (6aR,9R)—N-((2R,5S,10aS,10bS)-5-benzyl-10b-hydroxy-2-methyl-3,6-dioxooctahydro-2H-oxazolo[3,2-a]pyrrolo[2,1-c]pyrazin-2-yl)-7-methyl-4,6,6a,7,8,9-hexahydroindolo[4,3-fg] quinoline-9-carboxamide]
locomotor-reducing activity of functional analogs [1]: interesting activity
locomotor-reducing activity of functional analogs ([1]; listed as 5-HT5A-agonist): locomotor-reducing activity
activity in the Zebrafish model of epilepsy [1]: high levels of activity
locomotor activity in wildtype larvae (WT scn1Lab+/+ larvae): did not decrease the locomotor activity

NC(=O)N1c2ccccc2C=Cc2ccccc21 [carbamazepine]
patients with worsening of symptoms (Dravet syndrome patients [3]): ~60%

CN1CCC(c2c[nH]c3ccc(O)cc23)CC1 [5-HT1E-agonist, 1H-Indol-5-ol, 3-(1-methyl-4-piperidinyl)-]
locomotor-reducing activity of functional analogs [1]: locomotor-reducing activity
locomotor activity in wildtype larvae (WT scn1Lab+/+ larvae): did not decrease the locomotor activity
reduction of epileptiform activity (in words, compared with fenfluramine) ([2]; 7 dpf): not able to reduce epileptiform activity

Nc1nnc(-c2cccc(Cl)c2Cl)c(N)n1 [lamotrigine]
patients with worsening of symptoms (Dravet syndrome patients [3]): up to 80%

Cc1nn(C)c(C)c1-c1cccc2c1CC[C@H](N(C)C)C2 [5-HT7-agonist, (2S)-(+)-5-(1,3,5-Trimethylpyrazol-4-yl)-2-(dimethylamino)tetralin]
locomotor-reducing activity of functional analogs [1]: locomotor-reducing activity
activity in the Zebrafish model of epilepsy [1]: high levels of activity

C=CC(N)CCC(=O)O (centres unmarked) [vigabatrin]
patients with worsening of symptoms (Dravet syndrome patients [3]): ~60%

CCNC(C)Cc1cccc(C(F)(F)F)c1 (centres unmarked) [fenfluramine]
activity in the Zebrafish model of epilepsy [1]: high levels of activity
locomotor activity after long treatment ([1]; long treatment (22 h), fenfluramine 25 μM, 7 dpf, p<0.0001): lowers locomotor activity; also recorded: significantly decreased
reduction of epileptiform activity (in words, compared with fenfluramine) ([2]; 7 dpf): anti-epileptiform activity
frequency of epileptiform events [2, 5]: 1.7±0.4046 events/10-min recording
mean cumulative duration of epileptiform events [2, 5]: 200.8±50.38 ms/10-min recording
mean duration of epileptiform events [2, 5]: 85.11±18.28 ms/10-min recording
patients seizure-free (Dravet syndrome patients [4]): 70%

O=C1Nc2ccc(Cl)cc2[C@@](C#CC2CC2)(C(F)(F)F)O1 [efavirenz, (4S)-6-chloro-4-(2-cyclopropylethynyl)-4-(trifluoromethyl)-1H-3,1-benzoxazin-2-one]
inhibition of locomotor activity in mutant fish embryos (Example 2) ([1]; tested at MTC): potent inhibitors
inhibition of epileptiform activity in mutant fish embryos (Example 2) ([2]; tested at MTC): potent inhibitors
